Reference: US8192962B2, “Processes for detecting toxic substances” (Daikin Industries, Ltd., priority 2001, dated 2012)

Test system: Unknown protein yeast genes
Test: DNA chip mRNA expression in yeast, unknown protein yeast genes (Table 1)
Assay type: cell-based, Saccharomyces cerevisiae S288C
Procedure, shortened: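 Whole-genome yeast DNA chip hybridization (65° C., >12 h) of Cy-labeled cDNA from S288C cells exposed 2 h at 25° C. to a sub-lethal toxicant dose in YPD; value is intensity relative to chemical-free control.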

[Cl][Hg][Cl] [(3), HgCl2]
The level of expressed mRNA in the presence of chemical substance/The level of expressed mRNA in the absence of chemical substance (yeast gene YAL053W, incubated two hours with chemical substance): 1.3
The level of expressed mRNA in the presence of chemical substance/The level of expressed mRNA in the absence of chemical substance (yeast gene YBL048W): 2.3
The level of expressed mRNA in the presence of chemical substance/The level of expressed mRNA in the absence of chemical substance (yeast gene YBL107C): 0.4
The level of expressed mRNA in the presence of chemical substance/The level of expressed mRNA in the absence of chemical substance (yeast gene YDL072C, incubated two hours with chemical substance): 3.5
The level of expressed mRNA in the presence of chemical substance/The level of expressed mRNA in the absence of chemical substance (yeast gene YDL204W, incubated two hours with chemical substance): 4.8
The level of expressed mRNA in the presence of chemical substance/The level of expressed mRNA in the absence of chemical substance (yeast gene YDL222C, incubated two hours with chemical substance): 1.5
The level of expressed mRNA in the presence of chemical substance/The level of expressed mRNA in the absence of chemical substance (yeast gene YDR330W, incubated two hours with chemical substance): 1.2
The level of expressed mRNA in the presence of chemical substance/The level of expressed mRNA in the absence of chemical substance (yeast gene YDR411C, incubated two hours with chemical substance): 1.8
The level of expressed mRNA in the presence of chemical substance/The level of expressed mRNA in the absence of chemical substance (yeast gene YDR511W, incubated two hours with chemical substance): 0.9
The level of expressed mRNA in the presence of chemical substance/The level of expressed mRNA in the absence of chemical substance (yeast gene YDR545W, incubated two hours with chemical substance): 0.6
The level of expressed mRNA in the presence of chemical substance/The level of expressed mRNA in the absence of chemical substance (yeast gene YEL001C, incubated two hours with chemical substance): 1.4
The level of expressed mRNA in the presence of chemical substance/The level of expressed mRNA in the absence of chemical substance (yeast gene YER004W, incubated two hours with chemical substance): 1.9
The level of expressed mRNA in the presence of chemical substance/The level of expressed mRNA in the absence of chemical substance (yeast gene YER035W, incubated two hours with chemical substance): 1.6
The level of expressed mRNA in the presence of chemical substance/The level of expressed mRNA in the absence of chemical substance (yeast gene YER079W, incubated two hours with chemical substance): 1.9
The level of expressed mRNA in the presence of chemical substance/The level of expressed mRNA in the absence of chemical substance (yeast gene YER106W, incubated two hours with chemical substance): 1.3
The level of expressed mRNA in the presence of chemical substance/The level of expressed mRNA in the absence of chemical substance (yeast gene YER158C, incubated two hours with chemical substance): 0.9
The level of expressed mRNA in the presence of chemical substance/The level of expressed mRNA in the absence of chemical substance (yeast gene YER163C, incubated two hours with chemical substance): 1.2
The level of expressed mRNA in the presence of chemical substance/The level of expressed mRNA in the absence of chemical substance (yeast gene YER175C, incubated two hours with chemical substance): 1.3
The level of expressed mRNA in the presence of chemical substance/The level of expressed mRNA in the absence of chemical substance (yeast gene YFL006W, incubated two hours with chemical substance): 1.6
The level of expressed mRNA in the presence of chemical substance/The level of expressed mRNA in the absence of chemical substance (yeast gene YFL010C, incubated two hours with chemical substance): 1.3
The level of expressed mRNA in the presence of chemical substance/The level of expressed mRNA in the absence of chemical substance (yeast gene YFL024C): 1.1
The level of expressed mRNA in the presence of chemical substance/The level of expressed mRNA in the absence of chemical substance (yeast gene YFL032W, incubated two hours with chemical substance): 1.6
The level of expressed mRNA in the presence of chemical substance/The level of expressed mRNA in the absence of chemical substance (yeast gene YGL037C, incubated two hours with chemical substance): 6.5
The level of expressed mRNA in the presence of chemical substance/The level of expressed mRNA in the absence of chemical substance (yeast gene YGL047W, incubated two hours with chemical substance): 1.6
The level of expressed mRNA in the presence of chemical substance/The level of expressed mRNA in the absence of chemical substance (yeast gene YGL053W, incubated two hours with chemical substance): 1.2
The level of expressed mRNA in the presence of chemical substance/The level of expressed mRNA in the absence of chemical substance (yeast gene YGL121C): 1.4
The level of expressed mRNA in the presence of chemical substance/The level of expressed mRNA in the absence of chemical substance (yeast gene YGL199C, incubated two hours with chemical substance): 1.7
The level of expressed mRNA in the presence of chemical substance/The level of expressed mRNA in the absence of chemical substance (yeast gene YGR101W, incubated two hours with chemical substance): 1.2
The level of expressed mRNA in the presence of chemical substance/The level of expressed mRNA in the absence of chemical substance (yeast gene YGR110W): 2.2
The level of expressed mRNA in the presence of chemical substance/The level of expressed mRNA in the absence of chemical substance (yeast gene YGR130C, incubated two hours with chemical substance): 0.6
The level of expressed mRNA in the presence of chemical substance/The level of expressed mRNA in the absence of chemical substance (yeast gene YGR154C, incubated two hours with chemical substance): 2.2
The level of expressed mRNA in the presence of chemical substance/The level of expressed mRNA in the absence of chemical substance (yeast gene YGR221C, incubated two hours with chemical substance): 0.9
The level of expressed mRNA in the presence of chemical substance/The level of expressed mRNA in the absence of chemical substance (yeast gene YHR138C, incubated two hours with chemical substance): 2.2
The level of expressed mRNA in the presence of chemical substance/The level of expressed mRNA in the absence of chemical substance (yeast gene YHR199C, incubated two hours with chemical substance): 3.2
The level of expressed mRNA in the presence of chemical substance/The level of expressed mRNA in the absence of chemical substance (yeast gene YIL023C, incubated two hours with chemical substance): 2.1
The level of expressed mRNA in the presence of chemical substance/The level of expressed mRNA in the absence of chemical substance (yeast gene YIL041W, incubated two hours with chemical substance): 2.1
The level of expressed mRNA in the presence of chemical substance/The level of expressed mRNA in the absence of chemical substance (yeast gene YIL087C, incubated two hours with chemical substance): 3.4
The level of expressed mRNA in the presence of chemical substance/The level of expressed mRNA in the absence of chemical substance (yeast gene YJL057C, incubated two hours with chemical substance): 1.6
The level of expressed mRNA in the presence of chemical substance/The level of expressed mRNA in the absence of chemical substance (yeast gene YJL066C, incubated two hours with chemical substance): 1.2
The level of expressed mRNA in the presence of chemical substance/The level of expressed mRNA in the absence of chemical substance (yeast gene YJL082W, incubated two hours with chemical substance): 2.4
The level of expressed mRNA in the presence of chemical substance/The level of expressed mRNA in the absence of chemical substance (yeast gene YJL151C, incubated two hours with chemical substance): 3.2
The level of expressed mRNA in the presence of chemical substance/The level of expressed mRNA in the absence of chemical substance (yeast gene YJL152W, incubated two hours with chemical substance): 1.8
The level of expressed mRNA in the presence of chemical substance/The level of expressed mRNA in the absence of chemical substance (yeast gene YJL161W, incubated two hours with chemical substance): 1.5
The level of expressed mRNA in the presence of chemical substance/The level of expressed mRNA in the absence of chemical substance (yeast gene YJL171C, incubated two hours with chemical substance): 2.8
The level of expressed mRNA in the presence of chemical substance/The level of expressed mRNA in the absence of chemical substance (yeast gene YJR008W, incubated two hours with chemical substance): 1.2
The level of expressed mRNA in the presence of chemical substance/The level of expressed mRNA in the absence of chemical substance (yeast gene YJR054W, incubated two hours with chemical substance): 0.3
The level of expressed mRNA in the presence of chemical substance/The level of expressed mRNA in the absence of chemical substance (yeast gene YKL071W): 5.4
The level of expressed mRNA in the presence of chemical substance/The level of expressed mRNA in the absence of chemical substance (yeast gene YKL086W, incubated two hours with chemical substance): 2.4
The level of expressed mRNA in the presence of chemical substance/The level of expressed mRNA in the absence of chemical substance (yeast gene YKL151C, incubated two hours with chemical substance): 1.7
The level of expressed mRNA in the presence of chemical substance/The level of expressed mRNA in the absence of chemical substance (yeast gene YKL153W, incubated two hours with chemical substance): 2.0
